Columns and labels:
[1] = biological target: FGFR1 (Homo sapiens, UniProt P11362); test: SelectScreen kinase activity profiling, FGFR1; format: biochemical; design: concentration or dose not given beside the values; settings: for Mean % Inhibition: mean of two independent trials
Excerpt: (§1) To characterize the RTK inhibitory activity of the antiangiogenic SMs described herein, 36 compounds were chosen and screened using Invitrogen's SelectScreen® kinase activity profiling service (described on-line at tools.invitrogen.com/content.cfm?pageid=10413#selection). VEGFR1 and FGFR2 RTK inhibitory activities were studied. […] Overall, a small minority of the SMs tested had any substantial kinase inhibitory activity. This observation supports a mechanism of antiangiogenic action other than RTK inhibition for most of the SMs described herein.

[2] = biological target: KDR(VEGFR2) (Homo sapiens, UniProt P35968); test: SelectScreen kinase activity profiling, KDR(VEGFR2); format: biochemical; design: % Inhibition / Mean % Inhibition: concentration or dose not given beside the values; settings: KDR(VEGFR2); for Mean % Inhibition: mean of two independent trials
Excerpt: as §1

[3] = first of two independent trials
[4] = second of two independent trials

Chain of FGFR1 (P11362 398-822 limits assumed): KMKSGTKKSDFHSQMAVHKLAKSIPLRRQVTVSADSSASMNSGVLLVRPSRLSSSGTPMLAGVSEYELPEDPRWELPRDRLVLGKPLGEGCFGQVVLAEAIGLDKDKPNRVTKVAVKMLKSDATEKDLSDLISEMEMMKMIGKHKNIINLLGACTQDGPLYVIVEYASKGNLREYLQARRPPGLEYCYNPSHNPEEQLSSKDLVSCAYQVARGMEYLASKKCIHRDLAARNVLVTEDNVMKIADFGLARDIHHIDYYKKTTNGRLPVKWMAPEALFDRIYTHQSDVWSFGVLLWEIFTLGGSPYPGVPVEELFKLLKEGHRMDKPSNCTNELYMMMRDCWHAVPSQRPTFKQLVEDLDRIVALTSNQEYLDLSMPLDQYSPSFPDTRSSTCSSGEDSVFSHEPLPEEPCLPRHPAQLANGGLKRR
Chain of KDR(VEGFR2) (P35968 20-1356): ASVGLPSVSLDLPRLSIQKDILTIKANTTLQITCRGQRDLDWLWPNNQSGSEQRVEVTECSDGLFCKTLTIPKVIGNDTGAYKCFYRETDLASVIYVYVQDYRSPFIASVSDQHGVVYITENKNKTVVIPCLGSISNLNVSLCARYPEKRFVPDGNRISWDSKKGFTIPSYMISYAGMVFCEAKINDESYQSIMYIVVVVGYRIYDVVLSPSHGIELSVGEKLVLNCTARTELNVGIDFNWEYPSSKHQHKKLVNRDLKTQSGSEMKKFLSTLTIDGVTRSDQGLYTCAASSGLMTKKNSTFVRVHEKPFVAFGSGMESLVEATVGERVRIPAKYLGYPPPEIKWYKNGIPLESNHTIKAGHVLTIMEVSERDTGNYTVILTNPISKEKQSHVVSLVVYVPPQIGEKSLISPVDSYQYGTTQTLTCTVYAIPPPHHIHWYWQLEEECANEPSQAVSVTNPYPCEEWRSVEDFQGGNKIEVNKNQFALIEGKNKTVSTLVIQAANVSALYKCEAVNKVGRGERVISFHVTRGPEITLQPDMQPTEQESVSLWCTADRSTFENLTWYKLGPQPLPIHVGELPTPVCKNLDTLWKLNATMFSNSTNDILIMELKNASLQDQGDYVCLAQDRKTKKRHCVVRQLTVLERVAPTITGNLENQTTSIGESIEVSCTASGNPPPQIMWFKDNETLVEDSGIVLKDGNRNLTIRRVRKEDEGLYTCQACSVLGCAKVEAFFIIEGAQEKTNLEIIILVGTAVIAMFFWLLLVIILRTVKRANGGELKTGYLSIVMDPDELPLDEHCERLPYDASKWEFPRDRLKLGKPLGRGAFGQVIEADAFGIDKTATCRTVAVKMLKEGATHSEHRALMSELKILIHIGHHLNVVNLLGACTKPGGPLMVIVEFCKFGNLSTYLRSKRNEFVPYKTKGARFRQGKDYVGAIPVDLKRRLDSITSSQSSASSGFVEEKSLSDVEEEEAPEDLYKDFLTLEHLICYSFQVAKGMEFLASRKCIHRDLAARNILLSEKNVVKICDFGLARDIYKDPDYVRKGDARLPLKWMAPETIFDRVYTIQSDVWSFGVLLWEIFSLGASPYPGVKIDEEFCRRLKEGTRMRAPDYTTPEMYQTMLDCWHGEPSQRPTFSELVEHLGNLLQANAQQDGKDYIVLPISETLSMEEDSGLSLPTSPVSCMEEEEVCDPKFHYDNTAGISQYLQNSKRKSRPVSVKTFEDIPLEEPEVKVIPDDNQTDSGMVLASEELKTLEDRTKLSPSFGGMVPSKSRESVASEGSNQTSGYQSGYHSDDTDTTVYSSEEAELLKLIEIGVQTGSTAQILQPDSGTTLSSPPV

SMILES	% Inhibition [1, 3] [%]	Mean % Inhibition [1] [%]	% Inhibition [1, 4] [%]	% Inhibition [2, 3] [%]	Mean % Inhibition [2] [%]	% Inhibition [2, 4] [%]
Cc1cc(O)c(-c2cc(O)c(C)cc2O)cc1O [compound 2805]	1	6	10	42	47	52
CC1(C)C2CCC1(C)C(OC(=O)CSC#N)C2 (stereo not drawn) [compound 3535]	−1	−2	−3	10	8	5
CC(C)(C)c1cc(O)ccc1O [compound 4972]	3	−2	−7	2	7	11
OC(c1cc(-c2ccccc2)nc2c1ccc1ccccc12)C1CCCCN1 (stereo not drawn) [compound 13480]	5	8	10	4	3	2
Cc1ccc(S(=O)(=O)OCC(=O)O)cc1 [compound 16555]	3	3	3	11	11	11
O=C(c1no[n+]([O-])c1C(=O)c1csc2ccccc12)c1csc2ccccc12 [compound 18877]	−3	−2	0	10	7	4
CS(=O)(=O)c1ccc(/C=N/NC(N)=S)cc1 [compound 27063]	−3	−3	−2	12	11	11
NC(=O)SCC(=O)Nc1ccc2ncccc2c1 [compound 36738]	−1	1	4	16	16	17
COc1ccc(NCc2c(O)ccc3ccccc23)cc1 [compound 47924]	1	2	3	21	19	18
O=[As](O)(O)c1ccc(Cc2ccc([As](=O)(O)O)cc2)cc1 [compound 48300]	8	9	10	76	77	78
CC(C)(C)c1c2c(c(C(C)(C)C)c3c1OCN(Cc1ccccc1)C3)OCN(Cc1ccccc1)C2 [compound 48458]	5	6	8	13	11	9
O=C(O)C1CCCN1Cc1ccc2c(c1)OCO2 (stereo not drawn) [compound 108895]	4	4	4	5	6	6
CC1=C(Br)C(=O)C(C)=C(Br)C1=O.Cc1c(O)c(Br)c(C)c(O)c1Br [compound 112200]	9	7	5	100	99	99
O=C(O)c1c(Br)c(Br)c(Br)c(Br)c1C1c2ccc(O)cc2Oc2cc(O)ccc21 [compound 119889]	96	96	95	103	103	104
C1=Cc2ccccc2C1.C=C(C)c1ccccc1.[N-]=[N+]=Nc1ccccc1 [compound 122351]	−1	1	4	4	4	4
O=[N+]([O-])c1ccc(S(=O)(=O)Cc2ccccc2)c([N+](=O)[O-])c1 [compound 122657]	−3	−3	−3	14	14	14
CC(C)(C)c1cc(C#N)cc(Br)c1OP(=O)(Oc1c(Br)cc(C#N)cc1C(C)(C)C)c1ccccc1 [compound 203328]	4	4	4	9	8	7
S=C1SCN(C2CCCCCCCCCCC2)CN1C1CCCCCCCCCCC1 [compound 209910]	2	4	5	9	10	10
COc1ccc(CC2C(=O)NC(C)C(=O)N(C)C3C(=O)N(C)C(Cc4ccc(O)c(c4)Oc4ccc(cc4)C3O)C(=O)NC(C)C(=O)NC(C)C(=O)N2C)cc1 (stereo not drawn) [compound 259968]	5	3	2	8	8	9
CCCCC[CH2][Hg][S]c1nc(N)nc2[nH]cnc12 [compound 268879]	3	1	−2	40	39	38
CC(=N[N-]C(=S)SCc1ccccc1)c1ccccn1.[Cl][Cu+] [compound 295642]	2	6	9	19	18	17
CSC(=[SH+])[N-]N=Cc1cccc(C)n1.CSC(=[SH+])[N-]N=Cc1cccc(C)n1.[Cu] [compound 310551]	−5	−3	−1	21	20	18
CSC(=[SH+])[N-]N=C(c1ccccn1)c1ccccn1.[Cu][Br] [compound 321206]	5	5	5	52	49	45
Nc1cc[c]([Hg])cc1.Nc1nc2c(ncn2C2OC(CO)C(O)C2O)c(=[SH+])[nH]1 (stereo not drawn) [compound 321237]	7	6	5	105	105	104
O=C1c2ccccc2NC(c2cc(Cl)cc(Cl)c2O)N1CCc1ccccn1 (stereo not drawn) [compound 328087]	3	4	5	9	9	9
CC(C)(O)/C=C/C(=O)C(C)(O)C1C(O)CC2(C)C3CC=C4C(C=C(O)C(=O)C4(C)C)C3(C)C(=O)CC12C (stereo not drawn) [compound 521777]	1	1	0	10	9	8

From patent US9504729B2, “Antiangiogenic small molecules and methods of use” (The United States of America, as represented by the …, priority 2009, dated 2016)
